We go through 20 compounds from US4138492A, “Aromatic amides of heterocyclic compounds and therapeutic compositions containing same” (priority 1974, dated 1979).

The test has as its system apomorphine-induced gnawing. As to the kind of experiment: Antiapomorphine activity (apomorphine-induced gnawing) in the rat. Format: in vivo. The note with it: for ED50 / minimal effective dose: Rattus norvegicus; for ED50: po, per os, Table I, read-out: ED50 Values; for minimal effective dose: read-out: Antiapomorphine in rat; for activity as an anti-emetic: compared with metoclopramide, from Table I. The source says: A number of the compounds of the present invention were screened in parallel with metoclopramide for potential anti-emetic effects against apomorphine-induced gnawing in the rat and as local anaesthetics on the rat sciatic nerve (Table I).
*Antiapomorphine activity in rat scored as […]

Structures can show the parent of a compound that is named as a salt. Bounds are passed on as bounds.

With `COc1cc(NC(=O)CCl)c(Cl)cc1C(=O)NC1CCN(Cc2ccccc2)CC1` [Compound 3, N-[4'-(1'-benzyl)piperidyl]-2-methoxy-4-(α-chloroacetamido)-5-chlorobenzamide hydrochloride], the ED50 (as a rule, the dose at which the effect has come halfway, by size or by number of responders) was < 25 mg/kg; the minimal effective dose stood at 6.25 mg/kg; the “activity as an anti-emetic” value is on record as “more active as an anti-emetic”.

Take `COc1cc(N)c(Cl)cc1C(=O)NC1CCN(CC=Cc2ccccc2)CC1` [Compound 16, N-[4'-(1'-cinnamyl)-piperidyl]-2-methoxy-4-amino-5-chlorobenzamide hydrochloride]: the minimal effective dose came to 25 mg/kg.

Take `COc1cc(NC(C)=O)c(Cl)cc1C(=O)NC1CCN(Cc2ccccc2)CC1` [Compound 1, N-[4'-(1'-benzyl)piperidyl]-2-methoxy-4-acetamido-5-chlorobenzamide]: the ED50 was ~25 mg/kg and the minimal effective dose was determined as 12.5 mg/kg.

On to `COc1cc(N)ccc1C(=O)NC1CCN(Cc2ccccc2)CC1` [Compound 8, N-[4'-(1'-benzyl)-piperidyl]-2-methoxy-4-aminobenzamide dihydrochloride], for which the ED50 is < 25 mg/kg, the minimal effective dose amounted to 6.25 mg/kg and the “activity as an anti-emetic” value is given as “more active as an anti-emetic”.

As to `COc1ccccc1CN1CCC(NC(=O)c2cc(Cl)c(N)cc2OC)CC1` [Compound 20, N-[4'-(1'-o-methoxy-benzyl)-piperidyl]-2-methoxy-4-amino-5-chloro-benzamide], the minimal effective dose amounted to 25 mg/kg.

Regarding `COc1cc(N)c(Cl)cc1C(=O)NC1CCN(Cc2ccccc2Cl)CC1` [Compound 21, N-[4'-(1'-o-chlorobenzyl)-piperidyl]-2-methoxy-4-amino-5-chloro-benzamide hydrochloride], the minimal effective dose turned out to be 25 mg/kg.

Turning to `COc1cc(N)c(Cl)cc1C(=O)NC1CCN(Cc2cccs2)CC1` [Compound 14], the minimal effective dose is 12.5 mg/kg.

Take `COc1ccc(Cl)cc1C(=O)NC1CCN(Cc2ccccc2)CC1` [Compound 10, N-[4'-(1'-benzyl)piperidyl]-2-methoxy-5-chlorobenzamide hydrochloride]: the minimal effective dose is 50 mg/kg.

Turning to `COc1cc(NC(=O)CN2CCCCC2)c(Cl)cc1C(=O)NC1CCN(Cc2ccccc2)CC1` [Compound 4, N-[4'-(1'-benzyl)piperidyl] -2-methoxy-4-α-(1"-piperidyl) acetamido-5-chlorobenzamide dihydrochloride], the ED50 is ~12 mg/kg and the minimal effective dose came out at 12.5 mg/kg.

With `COc1ccc(CN2CCC(NC(=O)c3cc(Cl)c(N)cc3OC)CC2)cc1` [Compound 18, N-[4'-(1'-p-methoxy-benzyl)-piperidyl]-2-methoxy-4-amino-5-chloro-benzamidehydrochloride], the minimal effective dose is 3.12 mg/kg and the “activity as an anti-emetic” value is listed as “more active as an anti-emetic”.

As for `COc1cc(NC(=O)C(F)(F)F)ccc1C(=O)NC1CCN(Cc2ccccc2)CC1` [Compound 7, N-[4'-(1'-benzyl)piperidyl]-2-methoxy-4-(α,α,α-trifluoroacetamido) benzamide hydrochloride], the median effective dose (ED50) was < 25 mg/kg and the minimal effective dose was found to be 25 mg/kg.

As to `COc1cc(N)c(Cl)cc1C(=O)NC1CCN(Cc2ccc3c(c2)OCO3)CC1` [Compound 15], the minimal effective dose amounted to 6.25 mg/kg and the “activity as an anti-emetic” value is “more active as an anti-emetic”.

As to `COc1cc(NC(=O)CCl)ccc1C(=O)NC1CCN(Cc2ccccc2)CC1` [Compound 5, N-[4'-(1'-benzyl)piperidyl]-2-methoxy-4-α-chloroacetamidobenzamide hydrochloride], the minimal effective dose is 25 mg/kg.

For the compound `COc1cc(NC(=O)C(F)(F)F)c(Cl)cc1C(=O)NC1CCN(Cc2ccccc2)CC1` [Compound 9, N-[4'-(1'-benzyl)piperidyl]-2-methoxy-4-(α,α, α-trifluoroacetamido)-5-chlorobenzamide hydrochloride], the ED50 is < 25 mg/kg, the minimal effective dose amounted to 3.12 mg/kg and the “activity as an anti-emetic” value is listed as “more active as an anti-emetic”.

For `COc1cc(N)c(Cl)cc1C(=O)NC1CCN(Cc2cccc(Cl)c2)CC1` [Compound 17, N-[4'-(1'-m-chlorobenzyl)-piperidyl]-2-methoxy-4-amino-5-chloro-benzamide hydrochloride], the minimal effective dose was determined as 12.5 mg/kg.

Regarding `COc1cc(N)c(Cl)cc1C(=O)NC1CCN(Cc2ccc(Cl)cc2)CC1` [Compound 12, N-[4'-(1'-p-chlorobenzyl)-piperidyl]-2-methoxy-4-amino-5-chloro-benzamide hydrochloride], the minimal effective dose turned out to be 3.12 mg/kg and the “activity as an anti-emetic” value is recorded as “more active as an anti-emetic”.

For the compound `O=C(CCl)Nc1ccc(C(=O)NC2CCN(Cc3ccccc3)CC2)cc1` [Compound 6, N-[4'-(1'-benzyl)piperidyl]-4-(α-chloroacetamido) benzamide hydrochloride], the minimal effective dose worked out at 50 mg/kg.

As to `COc1cc(N)c(Cl)cc1C(=O)NC1CCN(C(c2ccccc2)c2ccccc2)CC1` [Compound 19, N-[4'-(1'-diphenyl-methyl)-piperidyl]-2-methoxy-4-amino-5-chloro-benzamide hydrochloride], the minimal effective dose was found to be 50 mg/kg.

In the case of `COc1ccc(S(N)(=O)=O)cc1C(=O)NC1CCN(Cc2ccccc2)CC1` [N-[4'-(1'-benzyl)piperidyl]-2-methoxy-5-sulphamoylbenzamide hydrochloride], the “antiapomorphine activity in the rat” value (even at high doses) is given as “do not exhibit antiapomorphine activity in the rat even at high doses”.

On to `COc1cccc(CN2CCC(NC(=O)c3cc(Cl)c(N)cc3OC)CC2)c1` [Compound 13, N-[4'-(1'-m-methoxy-benzyl)-piperidyl]-2-methoxy-4-amino-5-chloro-benzamidehydrochloride], for which the minimal effective dose was determined as 25 mg/kg.
